Results as given in patent US8680269B2, “Pesticidal compositions” (Dow AgroSciences, LLC., priority 2009, dated 2014).

Experiments:
Assay type in all cases: in vivo
[1] = system: corn earworm (CEW; Helicoverpa zea); assay: Insecticidal test for corn earworm, 128-well diet tray assay; details: 144 h, 50 μg/cm2 on artificial diet, second instar larvae, six days at 25° C.
Procedure, shortened: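 Second-instar H. zea larvae, three to five per well, on artificial diet surface-treated with 50 μg/cm^2 compound (90:10 acetone-water, dried), eight wells per compound. Held 6 days at 25° C, 14:10 light-dark; percent mortality averaged over wells.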

[2] = system: beet armyworm (BAW; Spodoptera exigua); assay: Insecticidal test for beet armyworm, 128-well diet tray assay; details: 144 h, 50 μg/cm2 on artificial diet, second instar larvae, six days at 25° C.
Procedure, shortened: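 Second-instar larvae, three to five per well, fed on artificial diet surface-treated with 50 μg/cm^2 compound (applied in 90:10 acetone-water, dried). Held 6 days at 25 °C, 14:10 light-dark; percent mortality scored per well and averaged over eight wells.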

[3] = system: green peach aphid (Myzus persicae); assay: Insecticidal test for green peach aphid in foliar spray assay; details: 72 h, 200 ppm foliar spray on cabbage seedlings, graded after three days, Abbott corrected % control, read-out: Mortality GPA 200 ppm
Description: Cabbage seedlings grown in 3-inch pots, with 2-3 small (3-5 cm) true leaves, were used as test substrate. The seedlings were infested with 20-50 green peach aphids (wingless adult and nymph) one day prior to chemical application. Four pots with individual seedlings were used for each treatment. Compounds (2 mg) were dissolved in 2 mL of acetone/methanol (1:1) solvent, forming stock solutions of 1000 ppm. The stock solutions were diluted 5× with 0.025% Tween 20 in H2O to obtain the test solution at 200 ppm. A hand-held Devilbiss sprayer was used for spraying a solution to both sides of cabbage leaves until runoff. Reference plants (solvent check) were sprayed with the diluent only. Treated plants were held in a holding room for three days at approximately 25° C. and 40% relative humidity (RH) prior to grading. Evaluation was conducted by counting the number of live aphids per plant under a microscope. Insecticidal activity data, measured by using Abbott's correction formula, are presented in Table 2: Corrected % Control=100*(X−Y)/X • where X=No. of live aphids on solvent check plants • Y=No. of live aphids on treated plants

Row | Compound | mortality at 50 µg/cm2 [1] [%] | mortality at 50 µg/cm2 [2] [%] | mortality at 200 ppm [3] [%]
1 | COc1cccc(OC)c1NC(=S)N/N=C/c1ccc(-c2ncn(-c3ccc(OC(F)(F)F)cc3)n2)cc1 [Compound 57] | 50 to 100 | 50 to 100 | < 80
2 | CCc1cccc(C)c1NC(=S)N/N=C/c1ccc(-c2ncn(-c3ccc(OC(F)(F)F)cc3)n2)cc1 [Compound 72] | 50 to 100 | 50 to 100 | < 80
3 | CN(C)c1ncc(NC(=S)N/N=C/c2ccc(-c3ncn(-c4ccc(OC(F)(F)F)cc4)n3)cc2)cn1 [Compound 43] | 50 to 100 | 50 to 100 | < 80
4 | CN(C)c1ccc(NC(=S)N/N=C/c2ccc(-c3ncn(-c4ccc(OC(F)(F)F)cc4)n3)cc2)cc1 [Compound 1] | 50 to 100 | 50 to 100 | < 80
5 | FC(F)(F)Oc1ccc(-n2cnc(-c3ccc(/C=N/NC(=S)Nc4ccc(Cl)cn4)cc3)n2)cc1 [Compound 59] | < 50 | < 50 | < 80
6 | Cc1cccc(C)c1NC(=S)N/N=C/c1ccc(-c2ncn(-c3ccc(OC(F)(F)C(F)(F)F)cc3)n2)cc1 [Compound 97] | 50 to 100 | 50 to 100 | < 80
7 | Fc1cccc(F)c1NC(=S)N/N=C/c1ccc(-c2ncn(-c3ccc(OC(F)(F)F)cc3)n2)cc1 [Compound 47] | 50 to 100 | 50 to 100 | < 80
8 | COc1ccc(NC(=S)N/N=C/c2ccc(-c3cn(-c4ccc(OC(F)(F)F)cc4)cn3)cc2)cc1 [Compound 67] | 50 to 100 | 50 to 100 | < 80
9 | O=C(N/N=C/c1ccc(-c2ncn(-c3ccc(OC(F)(F)F)cc3)n2)cc1)Nc1c(Cl)cccc1Cl [Compound 120] | 50 to 100 | 50 to 100 | < 80
10 | CN(C)S(=O)(=O)c1ccccc1NC(=S)N/N=C/c1ccc(-c2ncn(-c3ccc(OC(F)(F)F)cc3)n2)cc1 [Compound 77] | 50 to 100 | 50 to 100 | < 80
11 | Fc1c(F)c(F)c(NC(=S)N/N=C/c2ccc(-c3ncn(-c4ccc(OC(F)(F)F)cc4)n3)cc2)c(F)c1F [Compound 64] | 50 to 100 | 50 to 100 | < 80
12 | COc1cccc(C)c1NC(=S)N/N=C/c1ccc(-c2ncn(-c3ccc(OC(F)(F)F)cc3)n2)cc1 [Compound 73] | 50 to 100 | 50 to 100 | < 80
13 | CN(C)c1ccc(NC(=S)N/N=C/c2ccc(-c3ncn(-c4ccc(OC(F)(F)F)cc4)n3)cc2)c(C(F)(F)F)c1 [Compound 49] | 50 to 100 | 50 to 100 | < 80
14 | FC(F)(F)Oc1ccc(-n2cnc(-c3ccc(/C=N/NC(=S)NCc4ccc(Cl)cc4)cc3)n2)cc1 [Compound 34] | 50 to 100 | 50 to 100 | < 80
15 | C=CCNC(=S)N/N=C/c1ccc(-c2ncn(-c3ccc(OC(F)(F)F)cc3)n2)cc1 [Compound 12] | 50 to 100 | 50 to 100 | < 80
16 | COc1cc(C)c(NC(=S)N/N=C/c2ccc(-c3ncn(-c4ccc(OC(F)(F)F)cc4)n3)cc2)c(C)n1 [Compound 129] | 50 to 100 | 50 to 100 | < 80
17 | CN(C)C(=S)N/N=C/c1ccc(-c2ncn(-c3ccc(OC(F)(F)F)cc3)n2)cc1 [Compound 11] | 50 to 100 | 50 to 100 | < 80
18 | COc1ccc(NC(=S)N/N=C/c2ccc(-c3ncn(-c4ccc(OC(F)(F)F)cc4)n3)cc2)cc1 [Compound 28] | 50 to 100 | 50 to 100 | < 80
19 | CNc1ccc(NC(=S)N/N=C/c2ccc(-c3ncn(-c4ccc(OC(F)(F)F)cc4)n3)cc2)cc1 [Compound 42] | 50 to 100 | 50 to 100 | < 80
20 | COc1ccccc1NC(=S)N/N=C/c1ccc(-c2ncn(-c3ccc(OC(F)(F)F)cc3)n2)cc1 [Compound 74] | 50 to 100 | 50 to 100 | < 80
21 | C/C(=N\NC(=S)Nc1c(C)cccc1C)c1ccc(-c2ncn(-c3ccc(OC(F)(F)F)cc3)n2)cc1 [Compound 126] | 50 to 100 | 50 to 100 | < 80
22 | FC(F)(F)c1ccc(-n2cnc(-c3ccc(/C=N/NC(=S)NCCc4ccccn4)cc3)n2)cc1 [Compound 5] | 50 to 100 | 50 to 100 | < 80
23 | CSc1ccccc1NC(=S)N/N=C/c1ccc(-c2ncn(-c3ccc(OC(F)(F)F)cc3)n2)cc1 [Compound 75] | 50 to 100 | 50 to 100 | < 80
24 | FC(F)(F)Oc1ccc(-n2cnc(-c3ccc(/C=N/NC(=S)Nc4ccccc4OC(F)(F)F)cc3)n2)cc1 [Compound 66] | 50 to 100 | 50 to 100 | < 80
25 | CCOC(=O)CNC(=S)N/N=C/c1ccc(-c2ncn(-c3ccc(OC(F)(F)F)cc3)n2)cc1 [Compound 30] | 50 to 100 | 50 to 100 | < 80
26 | CN(C)c1cccc(NC(=S)N/N=C/c2ccc(-c3ncn(-c4ccc(OC(F)(F)F)cc4)n3)cc2)c1 [Compound 2, N-(3-(dimethylamino)phenyl)-2-(4-(1-(4-(trifluoromethoxy)phenyl)-1H-1,2,4-triazol-3-yl)benzylidene)hydrazinecarbothioamide] | 50 to 100 | 50 to 100 | < 80
27 | COc1ccc(NC(=O)N/N=C/c2ccc(-c3ncn(-c4ccc(OC(F)(F)F)cc4)n3)cc2)c(C)c1 [Compound 119] | 50 to 100 | 50 to 100 | < 80
28 | Cc1cccc(C)c1NC(=S)N/N=C/c1ccc(-c2ncn(-c3ccc(OC(F)(F)F)cc3)n2)cc1 [Compound 78] | 50 to 100 | 50 to 100 | < 80
29 | CNC(=S)N/N=C/c1ccc(-c2ncn(-c3ccc(C(F)(F)F)cc3)n2)cc1 [Compound 15] | 50 to 100 | 50 to 100 | < 80
